Consider one molecule from patent US11707448B2, “Combination therapies for the treatment of cancer” (Eisai R&D Management Co., Ltd., priority 2014, dated 2023).

For one series, the system named is CT26 tumors. The series can be described thus: Bilateral CT26 tumor model (abscopic effect). The series is classed as in vivo, mice. The method, then: FIG. 5A to FIG. 5B. Anti-tumor effect of ER-886046/radiation in a bilateral tumor model. Two similar-sized CT-26 tumors were grown in a host by injecting CT26 cells subcutaneously on both right and left flanks of Ba1B/c mice. Radiation was applied to the right flank tumor on both day 9 and day 13 as indicated by arrows in panel A. ER-886046 was administered daily po to the animals at a dose of 150 mg/kg as indicated by the bars. ER-886046 was dosed to animals from day 9 to day 27. Panel shown in FIG. 5A) Average size of the right flank tumor that received radiation and ER-886046. Panel shown in FIG. 5B) Average size of the left flank tumor that received no radiation (radiation administered only to the right flank tumor).
Abscopic effect of the combination treatment of ER-886046 and radiation in an animal model. Induction of anti-tumor immune response can be systemic and thus highly valuable for treating metastatic cancer, which has multiple lesions in one host. To mimic the large metastatic lesions in mice, we simultaneously grew CT26 tumors on both sides of an individual mouse by subcutaneously injecting cancer cells. The tumors on the right side of the mice were treated with both radiation and ER-886046. The tumors on the left side of the mice received ER-886046 only.

The next series concerns 4T1 tumors. Put plainly: Challenge of cured (tumor-free) mice with 4T1 cells. The settings on record: mice cured by ER-886046 + radiation; vs control (naive) group. The series is classed as in vivo. The text has this: FIG. 4A to FIG. 4C. Long lasting anti-tumor effect with a memory immune response by ER-886046/radiation treatment. Panel shown in FIG. 4A) Tumor growth in the cured mice by ER-886046 and radiation combination treatment or in the naïve Ba1B/c mice that received injection of CT26 cells. Panel shown in FIG. 4B) Tumor growth of secondarily challenged CT-26 tumors in the cured mice or in naïve mice. Panel shown in FIG. 4C) Growth of 4T1 tumors in cured mice or in naïve mice. N=9-10. Note the complete rejection of challenged CT-26 tumor and reduced growth of challenged 4T1 tumors in the combination cured mice. ***, p<0.001. 2 tailed student t-test. Note that no treatment was applied to any animals.
In case of tumor rechallenge of tumor-free mice after treatments, CT26 cells and 4T1 cells were individually sc injected into the different flanks of the same mouse, and the growth of each tumor was measured and graphed as described above. Naïve mice that received neither cancer cell injection nor drug treatment were included as controls. […] At the end of study on day 27, the mice in all treatment groups were intranasally administered luciferin and the lungs were resected and analysed for luciferase expression using IVIS instrument. Quantification of the luciferase activity in the lungs was achieved by software Living Image.

The next series relates to B16F10 melanoma tumors. Put plainly: B16F10 melanoma model, ER-886046 with anti-CTLA4. The series is classed as in vivo, mice. As to the method:
FIG. 8A to FIG. 8B. Synergistic anti-tumor activity of ER-886046 with anti-CTLA4 in B16F10 tumors. Panel shown in FIG. 8A) Anti-tumor growth activities of anti-CTLA4 and ER-886046 in B16F10 melanoma tumors growing in C57BL/6 mice. Panel shown in FIG. 8B) Animal body weight changes of the treatment groups. Anti-CTLA4 dosing: 200 μg for the first intravenous (iv) injection on day 3 after transplantation and 100 μg for the other three iv injections on days 6, 9 and 12 as indicated by the arrows. ER-886046 dosing: 150 mg/kg, po daily administration from day 3 to day 15 as indicated by the bars. *, p<0.05; **, p<0.01; ns, not significant; student t test.
Animal studies; In vitro cultured cancer cells were harvested and suspended in 100 μl of phosphate buffered saline at a cell concentration of 1.0×10^5 cells/ml and subcutaneously (sc) injected into the mice using a 26 g syringe on day 0. At the days post cell implantation as indicated in the figures, the mice were randomized based on the tumor size followed by treatments with radiation at 3 or 9 Gy dose per treatment, anti-PDL1 at 200 μg/mouse per intraperitoneal injection (ip), or anti-CTLA4 at 200 or 100 μg/mouse per ip injection with or without orally administration of ER-886046 at a dose of 150 mg/kg. The animals that were assigned to the treatment groups in individual study had close mean tumor weights in all groups. The tumor sizes were measured twice a week by a digital caliper (Mitutoyo Corp), and the volume was calculated using the formula (1×w^2)/2=mm^3, where 1 and w refer to the larger and smaller perpendicular dimensions collected at each measurement. Graphs of group tumor sizes (mean±SEM) and body weights (mean±SEM) versus time were plotted using software GraphPad Prism 6 (Lake Forest, Calif.). Student t-test and Gehan-Breslow-Wilcoxon test were used for statistical analysis.

On to `C[C@H](NC(=O)c1c(C(F)F)nn(C)c1Oc1cccc(C(F)(F)F)c1)c1ccc(C(=O)O)cc1` [ER-886046], for which the “growth of right side tumor (radiated)” value in the series on CT26 tumors (ER-886046 150 mg/kg po daily day 9-27 + radiation of right flank tumor day 9 and 13, vs radiation alone or ER-886046 alone) was “better tumor growth suppression”. Moreover, the “growth of left side tumor (not radiated)” value with CT26 tumors (ER-886046 150 mg/kg po daily day 9-27, radiation only to right flank tumor, vs no ER-886046 treatment) is listed as “significantly reduced tumor growth rate”. In addition, the “growth of 4T1 tumors in cured mice” value with 4T1 tumors is “no rejection of the tumor, but the growth rate was significantly reduced”. Besides, the “anti-tumor growth activity, combination” value with B16F10 melanoma tumors (ER-886046 150 mg/kg po daily day 3-15 + anti-CTLA4 200/100 μg days 3, 6, 9, 12) was “highly significant anti-tumor activity”. The animal body weight result in the series with B16F10 melanoma tumors (ER-886046 + anti-CTLA4 combination) is recorded as “No animal body weight loss”. In addition, in the series on B16F10 melanoma tumors (alone, ER-886046 150 mg/kg po daily day 3-15, anti-CTLA4 200 μg day 3, 100 μg days 6, 9, 12), the “anti-tumor growth activity, single agent” value is reported as “minimal activity”.
